Read-outs that look alike come from different tables or passages of the source.
What was measured:
Assay type in all cases: biochemical
MMP 13 = MMP 13 (Homo sapiens, UniProt P45452); experiment: MMP 13 inhibition (IC50 / manual assay; method not described); conditions: for inhibition at 1 µM: read-out: MMP 13 % inhibition at 1 micromolar
MMP 9 = target: T1, MMP 9 (Homo sapiens, UniProt P14780); experiment: In Vitro Gelatinase Assay; conditions: human neutrophil gelatinase B; for IC50: read-out: MMP 9 IC 50; for inhibition at 1 µM: read-out: MMP 9 % inhibition at 1 micromolar, 1 micromolar
T1 construct: from tissue; host or cells: human neutrophils
T1 sequence (P14780 94-707): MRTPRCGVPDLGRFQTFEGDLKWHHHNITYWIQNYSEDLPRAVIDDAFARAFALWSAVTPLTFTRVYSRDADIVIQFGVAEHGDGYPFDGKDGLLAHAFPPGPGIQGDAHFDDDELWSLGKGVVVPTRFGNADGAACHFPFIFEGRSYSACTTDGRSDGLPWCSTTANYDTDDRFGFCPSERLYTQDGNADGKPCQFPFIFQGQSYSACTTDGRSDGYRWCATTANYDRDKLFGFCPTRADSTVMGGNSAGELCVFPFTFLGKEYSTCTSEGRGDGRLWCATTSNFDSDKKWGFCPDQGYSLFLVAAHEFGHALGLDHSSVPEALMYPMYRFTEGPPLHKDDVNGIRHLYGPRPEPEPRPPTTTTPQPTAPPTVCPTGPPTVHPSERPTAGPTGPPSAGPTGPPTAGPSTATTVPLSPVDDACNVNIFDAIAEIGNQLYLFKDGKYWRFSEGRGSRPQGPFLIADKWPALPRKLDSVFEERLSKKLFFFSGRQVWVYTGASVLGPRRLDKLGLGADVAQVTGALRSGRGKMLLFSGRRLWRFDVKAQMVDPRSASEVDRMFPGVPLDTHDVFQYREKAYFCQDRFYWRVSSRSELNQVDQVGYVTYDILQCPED
Summary of the method: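 Human MMP-9 cleaves thiopeptide Ac-Pro-Leu-Gly(2-mercapto-4-methyl-pentanoyl)-Leu-Gly-OEt, with the released thiol reacting with DTNB. Substrate and DTNB were diluted together to 1 mM in 50 mM HEPES pH 7.5, 5 mM CaCl2. Rate came from the OD405 slope (r^2 >0.85), compared with control by Dunnett's test.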

MMP 1 = target: T2, MMP 1 (Homo sapiens, UniProt P03956); experiment: In Vitro Collagenase Assay; conditions: human recombinant fibroblast collagenase; for IC50: read-out: MMP 1 IC 50; for inhibition at 1 µM: read-out: MMP 1 % inhibition at 1 micromolar, 1 micromolar
T2 construct: human recombinant fibroblast collagenase (truncated, mw= 18,828, WAR, Radnor)
T2 sequence (P03956 100-269 limits assumed): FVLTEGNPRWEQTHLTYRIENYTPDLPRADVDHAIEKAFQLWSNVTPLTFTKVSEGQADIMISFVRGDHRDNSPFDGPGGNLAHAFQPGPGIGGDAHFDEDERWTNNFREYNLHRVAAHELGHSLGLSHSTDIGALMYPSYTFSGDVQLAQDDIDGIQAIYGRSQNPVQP
Summary of the method: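 Collagenase (5 nM final) cleaves the quenched fluorogenic peptide Dnp-Pro-Cha-Gly-Cys(Me)-His-Ala-Lys(NMa)-NH2 (10 µM final) in HCBC buffer. Solvent is below 1.0%, and the reaction is started with substrate. Rate is taken from the fluorescence slope (r^2 >0.85), and drug-treated rates are compared with control by Dunnett's test.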

TACE = target: T3, TACE (Homo sapiens, UniProt P78536); experiment: Procedure for Measuring TACE Inhibition; conditions: for inhibition at 1 µM: read-out: TACE % inhibition at 1 micromolar; for IC50: read-out: TACE IC 50
T3 construct: purchased Immunex
T3 sequence (P78536 215-824): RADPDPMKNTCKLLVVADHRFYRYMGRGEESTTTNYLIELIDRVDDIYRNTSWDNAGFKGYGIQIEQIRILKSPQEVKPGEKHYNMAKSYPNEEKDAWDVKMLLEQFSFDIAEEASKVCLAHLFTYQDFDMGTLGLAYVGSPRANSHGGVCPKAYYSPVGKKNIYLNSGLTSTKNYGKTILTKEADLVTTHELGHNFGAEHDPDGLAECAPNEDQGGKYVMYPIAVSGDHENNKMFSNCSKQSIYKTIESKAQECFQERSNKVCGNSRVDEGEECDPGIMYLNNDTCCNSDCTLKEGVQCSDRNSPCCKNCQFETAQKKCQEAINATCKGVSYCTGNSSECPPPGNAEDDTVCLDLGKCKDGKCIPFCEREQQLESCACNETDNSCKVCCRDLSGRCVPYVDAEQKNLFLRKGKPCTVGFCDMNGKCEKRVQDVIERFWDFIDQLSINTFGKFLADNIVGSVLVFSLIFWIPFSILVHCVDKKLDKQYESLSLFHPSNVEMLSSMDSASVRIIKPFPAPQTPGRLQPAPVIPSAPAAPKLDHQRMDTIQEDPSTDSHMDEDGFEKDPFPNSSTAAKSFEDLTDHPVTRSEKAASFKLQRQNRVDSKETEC
Summary of the method: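 Single-concentration screen: test compound at 1 µM final, 10-min room-temperature preincubation with 1 µg/mL protease in Tris pH 7.4 buffer containing glycerol. Initial rate from linear fluorescence increase (340/420 nm) over 10 min after adding 100 µM peptidyl substrate; significance versus control rate by Dunnett's test.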

Row | Structure (SMILES) | IC50 (MMP 13) [µM] | IC50 (MMP 9) [µM] | IC50 (MMP 1) [µM] | inhibition at 1 µM (TACE) [%] | IC50 (MMP 13; read-out: MMP 13 IC 50) [µM] | IC50 (TACE) [µM] | inhibition at 1 µM (MMP 13) [%] | inhibition at 1 µM (MMP 9) [%] | inhibition at 1 µM (MMP 1) [%] | MMP 13 % inhibition at 1 micromolar (MMP 13; 1 micromolar) [%] | TACE % inhibition at 1 micromolar (TACE; 1 micromolar) [%]
1 | COc1ccc(CCN2CCC(C(=O)NO)(S(=O)(=O)c3ccc(OC)cc3)CC2)cc1 [Example 102, 4-(4-methoxy-benzenesulfonyl)-1-[2-(4-methoxyphenyl)-ethyl]-piperidine-4-carboxylic acid hydroxyamide] | 0.0019 | 0.0337 | 0.662 | 53 | – | – | – | – | – | – | –
2 | COc1ccc(S(=O)(=O)C2(C(=O)NO)CCN(Cc3ccc(Cl)c(Cl)c3)CC2)cc1 [Example 85, 1-(3,4-dichlorobenzyl) -4-(4-methoxy-benzenesulfonyl)-piperidine-4-carboxylic acid hydroxamide] | – | 0.0058 | 0.45 | – | 0.0015 | 0.115 | – | – | – | – | –
3 | COc1ccc(S(=O)(=O)C(Cc2cccnc2)(CC(C)C)C(=O)NO)cc1 (stereo not shown) [Example 66, 2-(4-Methoxy-benzenesulfonyl)-4-methyl-2-pyridin-3-ylmethyl-pentanoic acid hydroxyamide] | – | 0.131 | 1.6 | 42.3 | 0.226 | – | – | – | – | – | –
4 | CC(Cc1ccccc1)(C(=O)NO)S(=O)(=O)c1cccs1 (stereo not shown) [Example 48, 2-Methyl-3-phenyl-2-(thiophene-2-sulfonyl)-propionic acid hydroxamide] | – | – | – | 51.1 | – | – | – | 79.1 | 99.1 | 85.4 | –
5 | COc1ccc(S(=O)(=O)C(CC=C(C)C)(Cc2cccnc2)C(=O)NO)cc1 (stereo not shown) [Example 63, 2-(4-Methoxy-benzenesulfonyl)-5-methyl-2-pyridin-3-ylmethyl-hex-4-enoic acid hydroxyamide] | 0.003 | 0.009 | 0.156 | – | – | 0.203 | – | – | – | – | –
6 | COc1ccc(S(=O)(=O)C(CCCc2ccccc2)(CCCc2ccccc2)C(=O)NO)cc1 [Example 57, 2-(4-methoxy-benzenesulfonyl)-5-phenyl-2-(3-phenyl-propyl)-pentanoic acid hydroxyamide] | – | 0.332 | 0.258 | 16.6 | 0.191 | – | – | – | – | – | –
7 | Cc1occc1S(=O)(=O)C(C)(Cc1ccc(OCCN2CCCCC2)cc1)C(=O)NO (stereo not shown) [Example 44, 2-Methyl-2-(2-methyl-furan-3-sulfonyl)-3-[4-(2-piperidin-1-yl-ethoxy)-phenyl]-propionic acid hydroxamide] | – | – | – | 14.9 | – | – | 39.5 | 36.9 | 47.1 | – | –
8 | CCC(Cc1ccc(OCCN2CCCCC2)cc1)(C(=O)NO)S(=O)(=O)c1ccc(OC)cc1 (stereo not shown) [Example 34, N-Hydroxy-2-(4-methoxy-benzenesulfonyl)-2-[4-(2-piperidin-1-yl-ethoxy)-benzyl]-butyramide] | – | 0.0347 | 0.52 | 28.1 | 0.0261 | – | – | – | – | – | –
9 | COc1ccc(S(=O)(=O)C2(C(=O)NO)CCN(Cc3ccc(F)cc3)CC2)cc1 [Example 99, 1-(4-Fluoro-benzyl)-4-(4-methoxy-benzenesulfonyl)-piperidine-4-carboxylic acid hydroxyamide] | – | 0.0162 | 0.656 | – | 0.0024 | 0.25 | – | – | – | – | –
10 | CCC(Cc1ccc(OCCN2CCOCC2)cc1)(C(=O)NO)S(=O)(=O)c1ccc(OC)cc1 (stereo not shown) [Example 33, N-Hydroxy-2-(4-methoxy-benzenesulfonyl)-2-[4-(2-morpholin-4-yl-ethoxy)-benzyl]-butyramide] | – | 0.0539 | 0.318 | 23.9 | 0.0184 | – | – | – | – | – | –
11 | COc1ccc(S(=O)(=O)C2(C(=O)NO)CCN(Cc3ccccc3)CC2)cc1 [Example 83, 1-Benzyl-4-(4-methoxy-benzenesulfonyl)-piperidine-4-carboxylic Acid hydroxyamide] | – | 0.0102 | 0.492 | – | 0.002 | 0.229 | – | – | – | – | –
12 | COc1ccc(S(=O)(=O)C(C)(Cc2ccc(OCCCN3CCN(c4cccc(Cl)c4)CC3)cc2)C(=O)NO)cc1 (stereo not shown) [Example 23, 3-(4-{3-[4-(3-Chloro-phenyl)-piperazin-1-yl]-propoxy}-phenyl)-N-hydroxy-2-(4-methoxy-benzenesulfonyl)-2-methyl-propionamide] | – | 0.0079 | 0.593 | 40.6 | 0.004 | – | – | – | – | – | –

The next lines start with the values.

Row | IC50 (MMP 13) [µM] | IC50 (MMP 9) [µM] | IC50 (MMP 1) [µM] | inhibition at 1 µM (TACE) [%] | IC50 (MMP 13; read-out: MMP 13 IC 50) [µM] | IC50 (TACE) [µM] | inhibition at 1 µM (MMP 13) [%] | inhibition at 1 µM (MMP 9) [%] | inhibition at 1 µM (MMP 1) [%] | MMP 13 % inhibition at 1 micromolar (MMP 13; 1 micromolar) [%] | TACE % inhibition at 1 micromolar (TACE; 1 micromolar) [%] | Structure (SMILES)
13 | – | 0.0958 | 0.446 | 33.1 | 0.0048 | – | – | – | – | – | – | CCCC(Cc1ccc(OCCN2CCCCCC2)cc1)(C(=O)NO)S(=O)(=O)c1ccc(OC)cc1 (stereo not shown) [Example 19, 2-[4-(2-Azepan-1-yl-ethoxy)-benzyl]-2-(4-methoxy-benzenesulfonyl)-pentanoic acid hydroxyamide]
14 | – | 0.0168 | 0.494 | – | 0.0015 | 0.222 | – | – | – | – | – | COc1ccc(S(=O)(=O)C2(C(=O)NO)CCN(Cc3ccc(C)cc3)CC2)cc1 [Example 86, 4-(4-methoxy-benzenesulfonyl)-1-(4-methylbenzyl)-piperidine-4-carboxylic acid hydroxamide]
15 | – | – | – | – | – | 0.191 | 63.6 | 26 | 22.1 | – | – | CCCCCC(Sc1ccc(OC)cc1)C(=O)NO (stereo not shown) [Example 80, 2-(4-methoxy-phenylsulfanyl)-heptanoic acid hydroxyamide]
16 | – | 0.0834 | 0.672 | 23.8 | 0.0327 | – | – | – | – | – | – | C#CCC(Cc1cccnc1)(C(=O)NO)S(=O)(=O)c1ccc(OC)cc1 (stereo not shown) [Example 75, 2-(4-Methoxy-benzenesulfonyl)-2-pyridin-3-ylmethyl-pent-4-ynoic acid hydroxyamide]
17 | – | 0.0214 | 0.267 | 40.4 | 0.0156 | – | – | – | – | – | – | COc1ccc([S+]([O-])C(C)(CC=C(C)C)C(=O)NO)cc1 (stereo not shown) [Example 6, 2-(4-Methoxy-benzenesulfinyl)-2,5-dimethyl-hex-4-enoic acid hydroxyamide]
18 | – | 0.0442 | 1.21 | 50.2 | 0.0041 | – | – | – | – | – | – | COc1ccc(S(=O)(=O)C2(C(=O)NO)CCN(CCCOc3ccccc3)CC2)cc1 [Example 105, 4-(4-Methoxy-benzenesulfonyl)-1-(3-phenoxy-propyl)-piperidine-4-carboxylic acid hydroxyamide]
19 | – | 0.0152 | 0.162 | – | 0.0057 | 0.688 | – | – | – | – | – | COc1ccc(S(=O)(=O)C(C)(CCCCN2C(=O)c3ccccc3C2=O)C(=O)NO)cc1 (stereo not shown) [Example 31, 6-(1,3-Dioxo-1,3-dihydro-isoindol-2-yl)-2-(4-methoxy-benzenesulfonyl)-2-methyl - hexanoic acid hydroxyamide]
20 | – | 0.01 | 0.303 | 21.7 | 0.007 | – | – | – | – | – | – | COc1ccc(S(=O)(=O)C(C)(Cc2ccccc2Br)C(=O)NO)cc1 (stereo not shown) [Example 55, 3-(2-Bromo-phenyl)-N-hydroxy-2-(4-methoxy-benzenesulfonyl)-2-methyl-propionamide]
21 | – | – | – | 3.3 | – | – | 7.12 | 12.9 | 17.1 | – | – | Cn1ccnc1S(=O)(=O)C(C)(Cc1ccc(-c2ccccc2)cc1)C(=O)NO (stereo not shown) [Example 47, 3-Biphenyl-4-yl-2-methyl-2-(1-methyl-1H-imidazole-2-sulfonyl)-propionic acid hydroxyamide]
22 | – | – | – | 29.7 | – | – | 36.7 | 25.6 | 40.9 | – | – | COc1ccc(S(=O)(=O)C(CCN(C(C)C)C(C)C)(Cc2ccccc2)C(=O)NO)cc1 (stereo not shown) [Example 64, 2-Benzyl-4-diisopropylamino-N-hydroxy-2-(4-methoxy-benzenesulfonyl)-butyramide]
23 | – | 0.0043 | 0.297 | – | 0.0036 | – | – | – | – | – | 41 | CCN(CC)CCOc1cccc(CC(C)(C(=O)NO)S(=O)(=O)c2ccc(OC)cc2)c1 (stereo not shown) [Example 29, N-Hydroxy-2-(4-methoxy-benzenesulfonyl)-2-methyl-3-[3-(2-N,N-diethylamino-ethoxy)-phenyl]-propionamide]
24 | – | 0.0386 | 1.39 | 49 | 0.007 | – | – | – | – | – | – | COc1ccc(S(=O)(=O)C2(C(=O)NO)CCN(CC=C(C)C)CC2)cc1 [Example 89, 4-(4-methoxy-benzene-sulfonyl)-1-(3-methyl-but-2-enyl)piperidine-4-carboxylic acid hydroxamide]
25 | – | 0.0729 | 0.844 | 33 | 0.0421 | – | – | – | – | – | – | COc1ccc([S+]([O-])C(C(=O)NO)C(C)C)cc1 (stereo not shown) [Example 7, N-Hydroxy-2-(4-methoxy-benzenesulfinyl)-3-methyl-butyramide]

— patent publication EP0970046B1, “N-HYDROXY-2-(ALKYL, ARYL, OR HETEROARYL SULFANYL, SULFINYL OR SULFONYL)-3-SUBSTITUTED ALKYL, ARYL OR HETEROARYLAMIDES AS MATRIX METALLOPROTEINASE INHIBITORS” (Wyeth Holdings Corporation, priority 1997, dated 1998)
